This note sets out measurements from article PMC4955970, “Stable, synthetic analogs of diadenosine tetraphosphate inhibit rat and human P2X3 receptors and inflammatory pain” (Molecular Pain, 2016).

Holding throughout (type): cell-based
The target in one assay is T1, rat P2X2 receptors (Rattus norvegicus, UniProt P49653).
T1 construct: expressed in transfected cells; host or cells: HEK293
T1 sequence (P49653 1-472): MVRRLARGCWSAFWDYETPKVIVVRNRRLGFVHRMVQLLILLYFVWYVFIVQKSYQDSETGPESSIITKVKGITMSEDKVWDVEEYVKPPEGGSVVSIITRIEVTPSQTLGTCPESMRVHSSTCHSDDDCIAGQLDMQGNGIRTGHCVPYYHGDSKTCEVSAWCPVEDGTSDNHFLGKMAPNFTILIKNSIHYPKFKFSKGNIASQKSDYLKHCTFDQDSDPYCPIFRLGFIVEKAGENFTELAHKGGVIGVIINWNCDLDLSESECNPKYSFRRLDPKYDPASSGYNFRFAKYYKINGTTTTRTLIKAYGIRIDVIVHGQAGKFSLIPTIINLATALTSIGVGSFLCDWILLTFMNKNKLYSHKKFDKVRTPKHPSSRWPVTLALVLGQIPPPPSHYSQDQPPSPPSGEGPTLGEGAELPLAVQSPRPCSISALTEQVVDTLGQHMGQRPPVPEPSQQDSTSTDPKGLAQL
Put plainly: Whole-cell patch clamp on HEK293 cells expressing rat P2X2 receptors (ATP-induced currents). Particulars: 1 µM; 10 µM ATP every 2 min.

Assay [1] deals with T2, native P2X3Rs in TG neurons (Rattus norvegicus, UniProt P49654).
T2 construct: endogenous in cells; host or cells: cultured rat trigeminal ganglion (TG) or dorsal root ganglion (DRG) neurons
T2 sequence (P49654 1-397): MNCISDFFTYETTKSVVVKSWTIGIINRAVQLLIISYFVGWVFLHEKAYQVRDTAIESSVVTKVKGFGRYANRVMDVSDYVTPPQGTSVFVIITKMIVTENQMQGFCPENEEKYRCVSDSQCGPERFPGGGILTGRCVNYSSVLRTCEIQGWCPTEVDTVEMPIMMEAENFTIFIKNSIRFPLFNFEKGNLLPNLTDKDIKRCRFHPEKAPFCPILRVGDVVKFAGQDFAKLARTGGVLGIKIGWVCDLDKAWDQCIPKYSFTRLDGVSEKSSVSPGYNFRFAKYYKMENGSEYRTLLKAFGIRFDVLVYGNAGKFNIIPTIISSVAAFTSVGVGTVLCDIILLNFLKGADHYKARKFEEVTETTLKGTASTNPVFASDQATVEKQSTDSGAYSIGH
The experiment in a line: Whole-cell recording of α,β-meATP currents in cultured trigeminal ganglion (TG) neurons. Particulars: read-out: inhibition of peak currents in TG neurons. The procedure:
(§1) Rat trigeminal, nodose, or dorsal root ganglion (TG, NG, and DRG, respectivley) neurons in culture were prepared as described previously.[46],[47] Neurons were plated on poly-L-lysine (0.2 mg/ml)-coated Petri dishes and cultured for one to two days under an atmosphere containing 5% CO2. Cells were used within two days of plating when they lacked processes. HEK293T cells were prepared as reported previously[32],[48] and transfected with rat or human full-length P2X3 cDNA subcloned into pIRES2-EGFP (Clontech, Mountain View, CA, USA).
(§2) TG, NG, DRG, or HEK cells were recorded in the whole-cell configuration while being continuously superfused (at 2 ml/min) with control solution containing (in mM): 152 NaCl, 5 KCl, 1 MgCl2, 2 CaCl2, 10 glucose, and 10 HEPES; pH was adjusted to 7.4 with NaOH and osmolarity was adjusted to 320 mOsM with glucose. […] Responses to selective P2X3R agonist α,β-methylene-ATP (α,β-meATP; resistant to ectoATPase hydrolysis, Sigma-Aldrich) were measured using an EPC-9 amplifier operated by HEKA Patch Master software (HEKA Electronik, Germany). Cells were voltage-clamped at −70 mV. In most cells, series resistance was compensated by 80%. To determine EC50 values, dose-response curves were constructed for α,β-meATP by administering different agonist doses same cells and fitting data to a logistic equation (Origin 8.0, Microcal, Northampton, MA). […]

Assay [2] deals with T3, native P2X3Rs in TG neurons (Rattus norvegicus, UniProt P49654).
T3 construct: endogenous in cells; host or cells: cultured rat trigeminal ganglion (TG) or dorsal root ganglion (DRG) neurons
T3 sequence (P49654 1-397): T2 sequence (P49654 1-397)
T3 sequence (P49653 1-472 partner): T1 sequence (P49653 1-472)
The assay is described as above. Particulars: read-out: inhibition of sustained residual component in TG neurons. The procedure:
as §1, §2

For a further assay, the target named is T4, rat P2X4 receptors (Rattus norvegicus, UniProt P51577).
T4 construct: expressed in transfected cells; host or cells: HEK293
T4 sequence (P51577 1-388): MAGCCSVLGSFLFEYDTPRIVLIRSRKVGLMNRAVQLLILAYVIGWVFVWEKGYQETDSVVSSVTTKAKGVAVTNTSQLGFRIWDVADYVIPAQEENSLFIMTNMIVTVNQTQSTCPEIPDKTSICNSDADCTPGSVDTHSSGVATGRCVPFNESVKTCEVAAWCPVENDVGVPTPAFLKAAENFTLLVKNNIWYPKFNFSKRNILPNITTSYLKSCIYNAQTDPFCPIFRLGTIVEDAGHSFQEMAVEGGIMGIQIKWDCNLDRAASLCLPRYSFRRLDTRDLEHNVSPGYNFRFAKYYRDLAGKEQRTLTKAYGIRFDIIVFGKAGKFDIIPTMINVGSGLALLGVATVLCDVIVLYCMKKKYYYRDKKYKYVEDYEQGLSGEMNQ
Put plainly: Whole-cell patch clamp on HEK293 cells expressing rat P2X4 receptors (ATP-induced currents). Particulars: 1 µM; 10 µM ATP every 2 min.

“Also recorded” adds a separate entry of the source. Like-named read-outs stand apart in the source and are kept apart here.

In the case of `Nc1ncnc2c1ncn2[C@@H]1O[C@H](COP(=O)(O)OP(=O)(O)NP(=O)(O)OP(=O)(O)OC[C@H]2O[C@@H](n3cnc4c(N)ncnc43)[C@H](O)[C@@H]2O)[C@@H](O)[C@H]1O` [AppNHppA, diadenosine 5′,5′′′-P^1,P^4-(β,γ-imido)tetraphosphate], the “HAD or partial agonism effect on P2X2R-mediated currents” value on rat P2X2 receptors is “did not produce any HAD or partial agonism effects; also recorded: does not inhibit”. The figures for the inhibition at 1 µM in assay [1] and in assay [2] were 80.3 ± 4.4% and 15 ± 6%, respectively. Moreover, the “HAD or partial agonism effect on P2X4R-mediated currents” value on rat P2X4 receptors is “did not produce any HAD or partial agonism effects; also recorded: does not inhibit”.
